Consider nine molecules from US20210395256A1, “TYROSINE KINASE INHIBITORS, COMPOSITIONS AND METHODS THERE OF” (Betta Pharmaceuticals Co., Ltd., priority 2018, published 2021).

Structures are written as SMILES. pIC50: −log10 of the molar value. Like-named read-outs stand apart in the source and are kept apart here. Bounds are passed on as bounds.

One assay concerns the target T1, Ba/F3-TPM3-NTRK1 (Homo sapiens, UniProt P04629).
T1 construct: expressed in transfected cells; host or cells: Ba/F3; the other entry of the earlier key: TPM3 (P06753, Tropomyosin alpha-3 chain)
Nature of the assay: Ba/F3-TPM3-NTRK1 cells proliferation assay. Type of assay: cell-based. Particulars: 72 h, CellTiter Glo. The procedure:
(§1) Example 202 Ba/F3-TPM3-NTRK1 and Ba/F3-ETV6-NTRK3 cells proliferation assay
(§2) Cell line: Ba/F3 cells with TPM3-NTRK1 or ETV6-NTRK3 fusion mutation gene stably overexpressed named Ba/F3-TPM3-NTRK1 and Ba/F3-ETV6-NTRK3.
(§3) RPMI 1640 and 10% FBS and 1% PS and 2 ug/mL puromycin.
(§4) b) Collect cell to a 15 mL centrifuged tube, centrifuge at 1000 rpm for 5 min. Discard the supernatant, count, and make the cell density at 1.49×10^4 cells/mL, then place it in a 37° C., 5% CO2 incubator.
(§5) a) The test compound (20 mM stock solution) was diluted to 60 μM with 100% DMSO as starting concentration then 3-fold serial diluted with “9+0” concentrations. in a 96-well dilution plate (Thermo, Cat. No. 249944);
(§6) b) The above compound solution was diluted 1:20 times with culture medium to prepare a 10 fold working solution;
(§7) a) Take cells in log phase growth, centrifuge at 1000 rpm for 5 min, then resuspend the cells with culture medium, then count cells;
(§8) b) Cells were seeded to 96-well cell culture plate with density at 2000 cells/well;
(§9) a) Compounds prepared at step 2 were added to cell plate with 15 μL per well, the final concentrations were 300, 100, 33.33, 11.11, 3.70, 1.23, 0.41, 0.14, 0.05 and 0 nM, and the final concentration of DMSO was 0.5%. The blank control well was a culture medium (0.5% DMSO);
(§10) c) The cells were incubated for an additional 72 h in the incubator.
(§11) a) Remove the 96-well cell culture plate and add 50 μl of CTG reagent (CellTiter Glo kit, promega, Cat #G7573).
(§12) b) Plate was shaked for 2 min and then let it cool for 30 min at room temperature.
(§13) c) The Luminescence signal value was read using a PerkinElmer reader.
(§14) Experimental Data Analysis
(§15) Data were analyzed using GraphPad Prism 6.0 software to obtain a fitted curve of compound activity.
(§16) Fit the Compound IC50 from non-linear regression equation:
(§17) Y=Bottom+(Top-Bottom)/(1+10^((Log IC50-X)×HillSlope));
(§18) X: The log of the concentration of the compound; Y: Luminescence value.

For the next assay, the target named is T2, Ba/F3-ETV6-NTRK3 (Homo sapiens, UniProt Q16288).
T2 construct: Ba/F3 cells with TPM3-NTRK1 or ETV6-NTRK3 fusion mutation gene stably overexpressed named Ba/F3-TPM3-NTRK1 and Ba/F3-ETV6-NTRK3; fused on or other part: P41212 (Transcription factor ETV6)
T2 sequence (Q16288 whole entry, the tested form may be a part): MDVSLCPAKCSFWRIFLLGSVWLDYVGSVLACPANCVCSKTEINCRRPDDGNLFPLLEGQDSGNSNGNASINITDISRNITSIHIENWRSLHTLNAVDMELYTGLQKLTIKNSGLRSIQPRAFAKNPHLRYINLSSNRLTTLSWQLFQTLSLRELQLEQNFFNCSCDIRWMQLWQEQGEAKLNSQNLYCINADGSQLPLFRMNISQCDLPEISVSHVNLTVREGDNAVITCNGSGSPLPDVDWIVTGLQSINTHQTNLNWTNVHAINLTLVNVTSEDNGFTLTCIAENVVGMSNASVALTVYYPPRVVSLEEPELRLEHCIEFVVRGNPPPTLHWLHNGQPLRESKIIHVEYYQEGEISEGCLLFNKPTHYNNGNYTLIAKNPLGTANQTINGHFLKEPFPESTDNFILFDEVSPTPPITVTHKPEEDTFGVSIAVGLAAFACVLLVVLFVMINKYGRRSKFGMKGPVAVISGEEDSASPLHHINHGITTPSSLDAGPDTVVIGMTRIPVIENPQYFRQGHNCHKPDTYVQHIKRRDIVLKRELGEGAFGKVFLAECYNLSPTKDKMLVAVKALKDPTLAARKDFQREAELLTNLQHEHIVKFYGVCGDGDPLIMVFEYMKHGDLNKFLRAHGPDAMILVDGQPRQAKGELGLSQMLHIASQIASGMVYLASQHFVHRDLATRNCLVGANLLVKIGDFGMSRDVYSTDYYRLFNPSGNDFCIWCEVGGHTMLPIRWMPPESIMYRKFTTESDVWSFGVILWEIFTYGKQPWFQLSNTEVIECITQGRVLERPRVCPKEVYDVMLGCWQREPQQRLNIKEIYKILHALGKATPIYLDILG
Nature of the assay: Ba/F3-ETV6-NTRK3 cells proliferation assay. Type of assay: cell-based. Particulars: 72 h, CellTiter Glo. The procedure:
as §1, §2, §3, §4, §5, §6, §7, §8, §9, §10, §11, §12, §13, §14, §15, §16, §17, §18

In another assay the target is TrkA kinase (Homo sapiens, UniProt P04629). Briefly: TrkA kinase assay (mobility shift assay). Type of assay: biochemical. Particulars: read-out: Trk A Kinase IC50. The gist of the method: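 Caliper mobility-shift readout of FAM-labelled peptide conversion by TrkA in 50 mM HEPES pH 7.5, 0.0015% Brij-35, with ATP; enzyme preincubated 10 min with compound (10-point dilution), reaction at 28 °C, EDTA stop. Inhibition relative to DMSO and no-enzyme controls; IC50 by four-parameter fit.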
Sequence of TrkA kinase (P04629 33-796): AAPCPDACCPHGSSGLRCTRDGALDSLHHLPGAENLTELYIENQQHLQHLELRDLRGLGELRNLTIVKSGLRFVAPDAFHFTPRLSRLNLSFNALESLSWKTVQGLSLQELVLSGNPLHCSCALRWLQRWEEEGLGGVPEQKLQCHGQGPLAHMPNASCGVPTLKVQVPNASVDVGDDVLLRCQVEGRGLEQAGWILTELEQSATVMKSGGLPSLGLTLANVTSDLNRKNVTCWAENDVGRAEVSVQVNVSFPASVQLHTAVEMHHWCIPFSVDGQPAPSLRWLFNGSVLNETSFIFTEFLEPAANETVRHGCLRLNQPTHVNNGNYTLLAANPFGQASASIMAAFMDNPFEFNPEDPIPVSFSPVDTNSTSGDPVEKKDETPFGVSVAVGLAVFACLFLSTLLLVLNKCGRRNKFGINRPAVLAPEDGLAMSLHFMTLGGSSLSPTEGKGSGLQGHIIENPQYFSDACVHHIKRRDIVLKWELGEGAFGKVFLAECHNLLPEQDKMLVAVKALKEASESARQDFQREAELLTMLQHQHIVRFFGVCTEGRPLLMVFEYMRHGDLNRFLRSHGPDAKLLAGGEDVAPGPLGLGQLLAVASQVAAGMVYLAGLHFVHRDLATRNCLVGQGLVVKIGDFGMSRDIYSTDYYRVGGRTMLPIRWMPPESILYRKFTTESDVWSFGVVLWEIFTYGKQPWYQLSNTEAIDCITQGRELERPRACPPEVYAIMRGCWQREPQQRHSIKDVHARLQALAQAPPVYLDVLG

T1 sequence (P04629 510-796 limits assumed): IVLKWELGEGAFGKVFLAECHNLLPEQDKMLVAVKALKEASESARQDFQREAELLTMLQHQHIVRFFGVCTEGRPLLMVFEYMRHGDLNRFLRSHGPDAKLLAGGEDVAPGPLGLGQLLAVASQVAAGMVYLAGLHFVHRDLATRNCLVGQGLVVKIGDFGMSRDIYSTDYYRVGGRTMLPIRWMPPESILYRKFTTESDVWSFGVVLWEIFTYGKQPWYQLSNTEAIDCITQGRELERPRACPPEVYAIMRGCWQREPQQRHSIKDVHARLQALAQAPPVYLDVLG

For `COC(=O)[C@@H]1CCCN1c1cc2[nH]c(-c3cnn4ccc(N5CCC[C@@H]5c5cc(F)ccc5F)nc34)nc2cc1C#N` [Compound 166, methyl (5-cyano-2-(5-((R)-2-(2,5-difluorophenyl)pyrrolidin-1-yl)pyrazolo[1,5-a]pyrimidin-3-yl)-1H-benzo[d]imidazol-6-yl)-L-prolinate], the pIC50 on Ba/F3-TPM3-NTRK1 is 8.33; on Ba/F3-ETV6-NTRK3, 8.11; on TrkA kinase (numeric values), 8.60.

For `N#Cc1cccc(-c2nnc(-c3cnn4ccc(N5CCC[C@@H]5c5cc(F)ccc5F)nc34)[nH]2)c1` [Compound 13, (R)-3-(5-(5-(2-(2,5-difluorophenyl)pyrrolidin-1-yl)pyrazolo[1,5-a]pyrimidin-3-yl)-4H-1,2,4-triazol-3-yl)benzonitrile], the pIC50 against Ba/F3-TPM3-NTRK1 was 9.01; against Ba/F3-ETV6-NTRK3 it was 8.74; at TrkA kinase (class symbols), no less than 8.00.

As for `COC(=O)N[C@@H](C)c1nnc(-c2cnn3ccc(N4CCC[C@@H]4c4cc(F)ccc4F)nc23)[nH]1` [Compound 12, methyl ((S)-1-(5-(5-((R)-2-(2,5-difluorophenyl)pyrrolidin-1-yl)pyrazolo[1,5-a]pyrimidin-3-yl)-4H-1,2,4-triazol-3-yl)ethyl)carbamate], the pIC50 is 8.11 at Ba/F3-TPM3-NTRK1, 8.57 against Ba/F3-ETV6-NTRK3 and less than 7.30 on TrkA kinase (class symbols).

As for `N#Cc1cc2nc(-c3cnn4ccc(N5CCC[C@@H]5c5cc(F)ccc5F)nc34)[nH]c2cc1N1CCC[C@H]1C(=O)O` [Compound 167, (5-cyano-2-(5-((R)-2-(2,5-difluorophenyl)pyrrolidin-1-yl)pyrazolo[1,5-a]pyrimidin-3-yl)-1H-benzo[d]imidazol-6-yl)-L-proline], the pIC50 is 7.88 at Ba/F3-TPM3-NTRK1, 7.71 at Ba/F3-ETV6-NTRK3 and 9.52 at TrkA kinase (numeric values).

Regarding `OC1CCC[C@H](c2nnc(-c3cnn4ccc(N5CCC[C@@H]5c5cc(F)ccc5F)nc34)[nH]2)C1` (stereo partly drawn) [Compound 18, (3S)-3-(5-(5-((R)-2-(2,5-difluorophenyl)pyrrolidin-1-yl)pyrazolo[1,5-a]pyrimidin-3-yl)-4H-1,2,4-triazol-3-yl)cyclohexan-1-ol], the values for the pIC50 at Ba/F3-TPM3-NTRK1, on Ba/F3-ETV6-NTRK3 and at TrkA kinase (class symbols) were 8.42, 8.55 and 7.30 to 8.00, respectively.

Turning to `Fc1ccc(F)c([C@H]2CCCN2c2ccn3ncc(-c4nnc(C5CCNCC5)[nH]4)c3n2)c1` [Compound 22, (R)-5-(2-(2,5-difluorophenyl)pyrrolidin-1-yl)-3-(5-(piperidin-4-yl)-4H-1,2,4-triazol-3-yl)pyrazolo[1,5-a]pyrimidine], the pIC50 at Ba/F3-TPM3-NTRK1 was 8.53; against Ba/F3-ETV6-NTRK3 it was 8.61; at TrkA kinase (class symbols) it was 7.30 to 8.00.

For `Oc1ccc(-c2nnc(-c3cnn4ccc(N5CCC[C@@H]5c5cc(F)ccc5F)nc34)[nH]2)cc1` [Compound 9, (R)-4-(5-(5-(2-(2,5-difluorophenyl)pyrrolidin-1-yl)pyrazolo[1,5-a]pyrimidin-3-yl)-4H-1,2,4-triazol-3-yl)phenol], the pIC50 at Ba/F3-TPM3-NTRK1 was 8.69; at Ba/F3-ETV6-NTRK3 it was 8.68; on TrkA kinase (class symbols), 7.30 to 8.00.

For `O=C(O)c1cc2nc(-c3cnn4ccc(N5CCC[C@@H]5c5cc(F)ccc5F)nc34)[nH]c2cc1F` [Compound 141, (R)-2-(5-(2-(2,5-difluorophenyl)pyrrolidin-1-yl)pyrazolo[1,5-a]pyrimidin-3-yl)-6-fluoro-1H-benzo[d]imidazole-5-carboxylic acid], the pIC50 is 7.52 at Ba/F3-TPM3-NTRK1, 7.68 at Ba/F3-ETV6-NTRK3 and 9.52 at TrkA kinase (numeric values).

`CCOC(=O)c1nnc(-c2cnn3ccc(N4CCC[C@@H]4c4cc(F)ccc4F)nc23)[nH]1` [Compound 16, ethyl (R)-5-(5-(2-(2,5-difluorophenyl)pyrrolidin-1-yl)pyrazolo[1,5-a]pyrimidin-3-yl)-4H-1,2,4-triazole-3-carboxylate]: the pIC50 was 8.04 at Ba/F3-TPM3-NTRK1, 8.38 on Ba/F3-ETV6-NTRK3 and less than 7.30 on TrkA kinase (class symbols).
